Experimental data as given in patent US4835253A, “Specific inhibitors of tissue kallikrein” (The University Hospital, priority 1987, dated 1989).
Where “and” joins values, the source holds several entries; their conditions need not be identical. Identical values can stand only once. Non-standard residues stand in square brackets, D forms with d. Residues, ends and D or L forms follow the SMILES beside them. *: point of attachment. Cha = N[C@@H](CC1CCCCC1)C(=O)O; dChg = N[C@@H](C(=O)O)C1CCCCC1; dPhg = N[C@@H](C(=O)O)c1ccccc1; pNA = O=[N+]([O-])c1ccc(N*)cc1; Chg = N[C@H](C(=O)O)C1CCCCC1

Assays:
Format in all cases: biochemical
[1] = biological target: T1, Human urinary kallikrein (Homo sapiens, UniProt P06870); assay: IC50 of tripeptide 4-nitroanilides against HUK cleavage of S-2266; settings: S-2266, 4.0 ng HUK, 37 C, pH 9.0
T1 construct: Human urinary kallikrein (hereinafter "HUK") was highly purified using a modification of published methods; from tissue; host or cells: human urine
Description: An evaluation of other possible peptide sequences and their potential effect as substrate analogue inhibitors specifically of tissue kallikrein was undertaken using chromogenic substrates comprising alternate series of tripeptide 4-nitroanilides using previously described methods [Amundsen et al., "Methods For The Determination Of Glandular Kallikrein By Means Of A Chromogenic Tripeptide Substrate," in Kinins-II. Part A. Plenum Press, 1979, pages 83-95]. This methodology relies on the capacity of HUK to cleave p-nitroaniline from specifically synthesized tripeptide 4-nitroanilines. Controls for this experimental series included S-2266 comprising D-Val-Leu-Arg-4NA; S-2444 comprising D-Glu-Gly-Arg-4NA; and S-2302 comprising D-Pro-Phe-Arg-4NA respectively. The 50% inhibitory concentration (IC50) values for each synthesized tripeptide 4-nitroanilide was determined at 37 C. at pH 9.0 using the specific kallikrein substrates S-2266 (Kabi, Helena Laboratories, Beaumont, Tex.). 4.0 nanograms (hereinafter "ng") of HUK were used in each sample. Blanks lacking S-2266 were run in parallel to correct for hydrolysis of all samples. In all cases, the amount of 4-nitroaniline generated from each tripeptide was less than 10% of that observed for the hydrolysis of S-2266.

[2] = biological target: T1, Human urinary kallikrein; assay: KM determination: hydrolysis of substrate analogues by HUK (HPLC, scintillation counting); settings: hydrolysis by HUK; kininogen = 1.0
Description: (§1) Human urinary kallikrein (hereinafter "HUK") was highly purified using a modification of published methods that employ ultrafiltration, aprotinin-CH-sepharose affinity chromatography, and Sephadex G-100 gel filtration [ole-MoiYoi et al., Proc. Natl. Acad. Sci. USA 76: 3121-3125 (1979)]. […] The pH of each fraction was determined immediately upon elution, and the fraction was neutralized by addition of 2.0 ml of 2M Tris-HCL buffer (pH 8.0).
KM Determination: Hydrolysis of the substrate analogue inhibitors by HUK was measured by combining the test inhibitor at different concentrations on either side of the KM value with the enzyme at pH 9.0 for thirty minutes at 37 C. The cleavage products were separated from the starting material in the digest by HPLC on a Beckman octadecylsilane (ODS) column (1×25 cm) using a thirty minute gradient of from 0-70% CH3 CN in triethylammonium phosphate buffer (pH 7.0). The starting materials and reaction products were completely resolved under these conditions. Absorbance of the HPLC effluent was monitored at 220 nm. Individual fractions were collected and the amount of peptide degradation products was quantitated by counting in a liquid scintillation counter. Samples containing individual inhibitors were incubated without HUK and solvent blanks were also chromatographed and analyzed in the same way.
For test purposes, in these HUA cleavage studies, individual peptide sequences were synthesized, purified, and characterized as previously described herein. For these cleavage studies, doubly labelled peptides were prepared using [^3 H]-valine and […] respectively. In addition, 6.0N HCL-dioxane was used for removal of tert-butoxycarbonyl protecting groups and 90% hydrogen fluoride/10% anisole (volume/volume) for global deprotection on completion of the synthesis. After extraction and gel filtration on Sephadex G-15, final purification was completed by isocratic elution from a synchrom RP-P column (2.1×25 cm) with CH3 CN--H2 O (8 ml/min). The resultant peptides were deemed to be homogeneous by amino acid analysis; high performance liquid chromatography; thin layer chromatography; and A230 /A260 ratio analysis. […]

[3] = biological target: T1, Human urinary kallikrein; assay: KI determination: inhibition of HUK cleavage of chromogenic substrate S-2266; settings: HUK, substrate S-2266, pH 9.0, 37 C; read-out: KI
Description: as §1
KI Determinations: KI measurements were performed using a HP8450A diode array spectrophotometer (Hewlett Packard; Palo Alto, Calif.) attached to a Model 216 computer using the multi-component assay program modified to allow simultaneous determination of reaction velocity in four samples. Dixon plots were used to data reduction and for calculation of […]. […] Inhibition of biologically active kinin from LMW-kininogen was done at pH 7.7 and 37 C.
Procedurally, the KI values for the preliminary analogue inhibitors reported previously [Okunishi et al., Hypertension 7 (Suppl. I): I-72-I-75 (1985)] were determined by adding the chromogenic substrate S-2266 comprising D-Val-Leu-Arg-4-nitroaniline to a mixture of the analogue inhibitor and the HUK.
Initially, the inhibitor constant (KI) for each of these novel inhibitor compositions was determined using purified HUK and the tripeptide nitroanilide, S-2266. The ability to inhibit hydrolysis of the S-2266 substrate was performed in 50 mM tris-HCL buffer (pH 9.0) at 37 C. Subsequently, the ability of these novel inhibitors to inhibit human plasma kallikrein and bovine pancreatic trypsin were similarly examined using the specific substrates H-D-Pro-Phe-Arg-p-nitroanilide (S-2302) and Glu-Gly-Arg-p-nitroanilide (S-2444) respectively. The degradation products of each series was purified by HPLC and quantified by liquid scintillation counting as previously described.

T1 sequence (P06870 25-262): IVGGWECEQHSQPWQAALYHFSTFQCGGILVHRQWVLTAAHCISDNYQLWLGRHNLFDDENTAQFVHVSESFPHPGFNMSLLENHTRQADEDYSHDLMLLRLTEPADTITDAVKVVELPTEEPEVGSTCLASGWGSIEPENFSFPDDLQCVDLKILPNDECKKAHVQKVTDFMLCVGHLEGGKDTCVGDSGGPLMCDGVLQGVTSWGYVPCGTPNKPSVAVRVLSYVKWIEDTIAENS

Structure (SMILES) | IC50 [1] [µM] | RELATIVE SPECIFICITY [2] | Ki [3]
N=C(N)NCCC[C@H](NC(=O)[C@H](Cc1ccccc1)NC(=O)[C@H](N)C1CCCCC1)C(=O)Nc1ccc([N+](=O)[O-])cc1 [D-Chg--Phe--Arg--4NA] (H-[dChg]-Phe-Arg-pNA) | 3.7 | – | –
CC(C)C[C@H](NC(=O)[C@@H](N)C1CCCCC1)C(=O)N[C@@H](CCCNC(=N)N)C(=O)Nc1ccc([N+](=O)[O-])cc1 [L-Chg--Leu--Arg--4NA] (H-[Chg]-Leu-Arg-pNA) | 18.7 | – | –
CC(=O)N[C@@H](CO)C(=O)N1CCC[C@H]1C(=O)N[C@@H](Cc1ccccc1)C(=O)N[C@@H](CCCNC(=N)N)C(=O)N[C@@H](CO)C(=O)N[C@H](C(=O)N[C@@H](CCC(N)=O)C(N)=O)C(C)C [KKI-6, Ac--Ser--Pro--Phe--Arg--Ser--Val--Gln--NH2, reference compound] (Ac-SPFRSVQ-NH2) | – | 45.4 | 73 µM
N=C(N)NCCC[C@H](NC(=O)[C@H](CC1CCCCC1)NC(=O)[C@@H](N)C1CCCCC1)C(=O)Nc1ccc([N+](=O)[O-])cc1 [L-Chg--Cha--Arg--4NA] (H-[Chg]-[Cha]-Arg-pNA) | 11.5 | – | –
CC(=O)N[C@@H](Cc1ccccc1)C(=O)N[C@@H](CCCN=C(N)N)C(=O)N[C@@H](CO)C(=O)N[C@H](C(=O)N[C@@H](CCC(N)=O)C(N)=O)C(C)C [KKI-4, Ac--Phe--Arg--Ser--Val--Gln--NH2, reference compound] (Ac-FRSVQ-NH2) | – | – | 35 µM
CC(=O)N[C@@H](Cc1ccccc1)C(=O)N[C@@H](CCCNC(=N)N)C(=O)N[C@@H](CO)C(=O)N[C@H](C(=O)N[C@@H](CCC(N)=O)C(N)=O)C(C)C [KKI-4, Ac--Phe--Arg--Ser--Val--Gln--NH2, reference compound] (Ac-FRSVQ-NH2) | – | 4.2 | –
CC(=O)N1CCC[C@H]1C(=O)N[C@@H](Cc1ccccc1)C(=O)N[C@@H](CCCNC(=N)N)C(=O)N[C@@H](CO)C(=O)N[C@H](C(=O)N[C@@H](CCC(N)=O)C(N)=O)C(C)C [KKI-5, Ac--Pro--Phe--Arg--Ser--Val--Gln--NH2, reference compound] (Ac-PFRSVQ-NH2) | – | 3.2 | 156 µM and 136 µM
N=C(N)NCCC[C@H](NC(=O)[C@H](CC1CCCCC1)NC(=O)[C@H](N)c1ccccc1)C(=O)Nc1ccc([N+](=O)[O-])cc1 [D-0Gly--Cha--Arg--4NA] (H-[dPhg]-[Cha]-Arg-pNA) | 7.4 | – | –
NCCCC[C@H](NC(=O)[C@H](CC1CCCCC1)NC(=O)[C@H](N)C1CCCCC1)C(=O)Nc1ccc([N+](=O)[O-])cc1 [D-Chg--Cha--Lys--4NA] (H-[dChg]-[Cha]-Lys-pNA) | 150 | – | –
NCCCC[C@H](NC(=O)[C@H](CC1CCCCC1)NC(=O)[C@H](N)c1ccccc1)C(=O)Nc1ccc([N+](=O)[O-])cc1 [D-0Gly--Cha--Lys--4NA] (H-[dPhg]-[Cha]-Lys-pNA) | > 200 | – | –
CC[C@H](C)[C@H](N)C(=O)N[C@@H](CC1CCCCC1)C(=O)N[C@@H](CCCNC(=N)N)C(=O)Nc1ccc([N+](=O)[O-])cc1 [L-Ile--Cha--Arg--4NA] (H-Ile-[Cha]-Arg-pNA) | 10.5 | – | –
